From article PMC11173529, “Structure–Activity Relationship Studies in a Series of Xanthine Inhibitors of SLACK Potassium Channels” (Molecules, 2024)

Columns and labels:
Assay type in all cases: cell-based
KV2.1 = target: T1, KV2.1 (Homo sapiens, UniProt Q14721); experiment: Tl+-flux selectivity panel in HEK-293 cells: KV2.1; settings: HEK293, 10 µM test compound, relative to control guangxitoxin 1E, read-out: Percent Inhibition ± SEM
T1 construct: expressed in transfected cells; host or cells: HEK293
T1 sequence (Q14721 1-858): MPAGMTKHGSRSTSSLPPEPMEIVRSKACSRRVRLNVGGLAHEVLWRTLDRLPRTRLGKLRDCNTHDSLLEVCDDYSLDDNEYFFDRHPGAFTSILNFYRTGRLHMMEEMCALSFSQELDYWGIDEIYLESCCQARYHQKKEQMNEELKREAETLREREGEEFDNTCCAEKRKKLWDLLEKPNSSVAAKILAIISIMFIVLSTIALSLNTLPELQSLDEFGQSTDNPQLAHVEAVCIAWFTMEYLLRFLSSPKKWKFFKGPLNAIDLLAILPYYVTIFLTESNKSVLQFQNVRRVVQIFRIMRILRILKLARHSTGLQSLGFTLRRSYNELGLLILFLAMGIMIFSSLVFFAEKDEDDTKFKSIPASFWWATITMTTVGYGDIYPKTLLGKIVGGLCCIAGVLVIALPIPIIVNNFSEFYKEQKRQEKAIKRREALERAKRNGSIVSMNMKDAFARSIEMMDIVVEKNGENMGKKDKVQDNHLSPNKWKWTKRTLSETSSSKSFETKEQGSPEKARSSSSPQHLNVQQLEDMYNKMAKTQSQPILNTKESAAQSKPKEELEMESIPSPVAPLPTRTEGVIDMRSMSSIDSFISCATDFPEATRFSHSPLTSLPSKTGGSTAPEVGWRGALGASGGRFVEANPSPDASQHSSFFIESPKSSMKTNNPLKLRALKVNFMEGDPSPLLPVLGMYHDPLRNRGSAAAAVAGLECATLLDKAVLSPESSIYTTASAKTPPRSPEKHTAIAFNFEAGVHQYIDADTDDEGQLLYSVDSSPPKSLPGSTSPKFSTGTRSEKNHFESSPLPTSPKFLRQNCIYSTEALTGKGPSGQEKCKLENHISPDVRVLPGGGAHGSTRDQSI
Method: (§1) With a handful of analogs that offered improved SLACK potency relative to hit compound 8, we next proceeded to investigate the ancillary pharmacology of such compounds, both with respect to other Slo family members as well as versus a spectrum of diverse ion channels (Table 5). Thus, we screened four compounds (32, 48, 70, and 71) at 10 µM in our in-house selectivity panel of Tl^+-flux assays in HEK-293 cells stably expressing the target of interest. […] Some valuable SAR was noted as well. […] Reduction of inhibition at Maxi-K α1/β4 also followed. This SAR will be important to bear in mind for continued optimization within this series. […] Of particular note is the lack of significant hERG activity in this series, as activity versus that counter-target has been an issue with other SLACK inhibitors.
(§2) Stably transfected monoclonal HEK293 cell lines expressing Slick, Maxi-K α1/β3, Maxi-K α1/β4, CaV3.2, GIRK 1/2, KV2.1, KV7.2, NaV1.7, and TASK-1 were generated as previously described. Stably transfected monoclonal HEK293 cell lines expressing hERG were generated as previously described. CHO-K1 cells expressing human Slack and disease-associated human Slack mutations, G288S and A934T, were generated by transfecting a PiggyBac TRE mammalian expression vector (VectorBuilder, Chicago, IL, USA) containing KCNT1. FuGENE 6 (Promega, Madison, WI, USA) transfection reagent and protocol, together with Opti-MEM (Thermo Fisher Scientific, Walkham, MA, USA), were utilized.
(§3) The Tl^+ flux assays were conducted as previously described with modifications optimized for individual cell lines as described below. Following removal of cell culture media, cells were loaded with Tl^+-sensitive dye loading solution containing Thallos-AM (ION Biosciences, San Marcos, TX, USA), 1.25 mM Probenecid, and 0.3% Pluronic F-127 (MilliporeSigma, Burlington, MA, USA), in assay buffer comprised of Hanks Balanced Salt Solution (HBSS) (Thermo Fisher Scientific, Waltham, MA, USA) and 20 mM HEPES (Corning, Corning, NY, USA) at room temperature for one-hour. Dye loading solution was replaced with 20 μL/well of assay buffer prior to assaying. Cell plates were then loaded onto a Panoptic kinetic imaging plate reader (WaveFront Biosciences, Franklin, TN, USA). Data were acquired at 5 Hz (excitation 482 ± 35 nm, emission 536 ± 40 nm) for 10 s, at which time 20 μL/well of test compounds in assay buffer at 2-fold above the desired final concentration was added and allowed to incubate for 120 s. Next, 10 μL/well of Tl^+ stimulus buffer (129 mM Na gluconate, 1.2 mM CaSO4, 1 MgSO4, 1 mM Na2HPO4, 4.17 mM NaHCO3, 5.56 mM glucose, 2.5 mM Tl2SO4, and 10 mM HEPES pH 7.3) was added. Imaging was concluded after an additional 120 s.

hERG = target: T2, hERG (Homo sapiens, UniProt Q12809); experiment: Tl+-flux selectivity panel in HEK-293 cells: hERG; settings: HEK-293 cells stably expressing hERG, 10 µM test compound, relative to control bepridil, read-out: Percent Inhibition ± SEM
T2 construct: expressed in transfected cells; host or cells: HEK293
Method: as §1, §2, §3

TASK-1 = target: T3, TASK-1 (Homo sapiens, UniProt O14649); experiment: Tl+-flux selectivity panel in HEK-293 cells: TASK-1; settings: HEK293, 10 µM test compound, relative to control bepridil, read-out: Percent Inhibition ± SEM
T3 construct: expressed in transfected cells; host or cells: HEK293
Method: as §1, §2, §3

KV7.2 = target: T4, KV7.2 (Homo sapiens, UniProt O43526); experiment: Tl+-flux selectivity panel in HEK-293 cells: KV7.2; settings: HEK293, 10 µM test compound, relative to control XE991, read-out: Percent Inhibition ± SEM
T4 construct: expressed in transfected cells; host or cells: HEK293
Method: as §1, §2, §3

Maxi-K α1/β4 = target: T5, Maxi-K α1/β4 (Homo sapiens, UniProt Q12791); experiment: Tl+-flux selectivity panel in HEK-293 cells: Maxi-K α1/β4; settings: HEK293, 10 µM test compound, relative to control paxilline, read-out: Percent Inhibition ± SEM
T5 construct: expressed in transfected cells; host or cells: HEK293
Method: as §1, §2, §3

CaV3.2 = target: T6, CaV3.2 (Homo sapiens, UniProt O95180); experiment: Tl+-flux selectivity panel in HEK-293 cells: CaV3.2; settings: HEK293, 10 µM test compound, relative to control bepridil, read-out: Percent Inhibition ± SEM
T6 construct: expressed in transfected cells; host or cells: HEK293
Method: as §1, §2, §3

Maxi-K α1/β3 = target: T7, Maxi-K α1/β3 (Homo sapiens, UniProt Q12791); experiment: Tl+-flux selectivity panel in HEK-293 cells: Maxi-K α1/β3; settings: HEK293, 10 µM test compound, relative to control paxilline, read-out: Percent Inhibition ± SEM
T7 construct: expressed in transfected cells; host or cells: HEK293
Method: as §1, §2, §3

NaV1.7 = target: T8, NaV1.7 (Homo sapiens, UniProt Q15858); experiment: Tl+-flux selectivity panel in HEK-293 cells: NaV1.7; settings: HEK293, 10 µM test compound, relative to control TC-N 1752, read-out: Percent Inhibition ± SEM
T8 construct: expressed in transfected cells; host or cells: HEK293
Method: as §1, §2, §3

T5 sequence (Q12791 whole entry): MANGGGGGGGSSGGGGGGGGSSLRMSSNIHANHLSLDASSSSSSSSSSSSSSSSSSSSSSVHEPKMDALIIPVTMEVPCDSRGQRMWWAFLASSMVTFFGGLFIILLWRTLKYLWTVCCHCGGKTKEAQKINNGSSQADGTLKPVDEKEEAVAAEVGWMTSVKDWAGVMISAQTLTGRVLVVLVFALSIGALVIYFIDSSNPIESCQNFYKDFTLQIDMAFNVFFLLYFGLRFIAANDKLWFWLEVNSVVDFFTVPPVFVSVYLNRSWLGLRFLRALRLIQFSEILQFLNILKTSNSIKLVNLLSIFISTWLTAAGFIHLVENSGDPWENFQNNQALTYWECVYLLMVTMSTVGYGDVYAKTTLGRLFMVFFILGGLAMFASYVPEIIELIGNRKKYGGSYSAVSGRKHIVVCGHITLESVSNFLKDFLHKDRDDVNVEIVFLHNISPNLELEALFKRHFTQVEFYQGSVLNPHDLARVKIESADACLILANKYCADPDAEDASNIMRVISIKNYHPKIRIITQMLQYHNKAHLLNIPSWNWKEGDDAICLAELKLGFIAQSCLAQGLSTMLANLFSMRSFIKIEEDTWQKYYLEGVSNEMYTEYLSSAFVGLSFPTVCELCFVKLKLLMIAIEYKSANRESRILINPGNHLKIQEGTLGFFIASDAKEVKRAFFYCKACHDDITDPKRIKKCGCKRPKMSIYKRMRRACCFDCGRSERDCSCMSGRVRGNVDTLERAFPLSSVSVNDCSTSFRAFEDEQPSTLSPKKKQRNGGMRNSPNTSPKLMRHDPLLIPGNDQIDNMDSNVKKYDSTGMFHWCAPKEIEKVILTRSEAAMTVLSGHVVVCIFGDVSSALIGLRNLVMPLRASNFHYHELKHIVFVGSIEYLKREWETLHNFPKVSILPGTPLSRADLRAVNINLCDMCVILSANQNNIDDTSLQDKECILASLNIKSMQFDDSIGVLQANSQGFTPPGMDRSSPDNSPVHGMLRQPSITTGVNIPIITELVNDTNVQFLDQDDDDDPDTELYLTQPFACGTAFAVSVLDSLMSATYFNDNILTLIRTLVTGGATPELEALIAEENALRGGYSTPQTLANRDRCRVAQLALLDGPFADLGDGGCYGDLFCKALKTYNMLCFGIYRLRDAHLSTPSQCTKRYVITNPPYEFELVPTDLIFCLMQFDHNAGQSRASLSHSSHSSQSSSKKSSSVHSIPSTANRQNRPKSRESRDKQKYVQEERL
T5 sequence (Q86W47 whole entry partner): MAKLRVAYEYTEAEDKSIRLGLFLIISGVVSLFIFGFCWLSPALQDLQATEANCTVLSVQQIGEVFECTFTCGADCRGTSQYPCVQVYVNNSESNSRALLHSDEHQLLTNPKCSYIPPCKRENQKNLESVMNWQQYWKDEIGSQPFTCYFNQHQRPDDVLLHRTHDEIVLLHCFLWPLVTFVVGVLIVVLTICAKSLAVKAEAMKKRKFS
T7 sequence (Q12791 whole entry): as the sequence (Q12791 whole entry) above
T7 sequence (Q9NPA1 whole entry partner): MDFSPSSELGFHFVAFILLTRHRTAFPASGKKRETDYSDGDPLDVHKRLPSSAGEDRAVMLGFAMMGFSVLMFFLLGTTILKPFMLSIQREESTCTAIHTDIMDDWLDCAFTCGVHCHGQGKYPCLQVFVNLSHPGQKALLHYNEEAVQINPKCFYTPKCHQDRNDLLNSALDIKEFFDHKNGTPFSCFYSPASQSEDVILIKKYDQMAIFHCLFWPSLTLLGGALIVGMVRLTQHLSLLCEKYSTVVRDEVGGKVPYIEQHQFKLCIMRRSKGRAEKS
T8 sequence (Q15858 whole entry): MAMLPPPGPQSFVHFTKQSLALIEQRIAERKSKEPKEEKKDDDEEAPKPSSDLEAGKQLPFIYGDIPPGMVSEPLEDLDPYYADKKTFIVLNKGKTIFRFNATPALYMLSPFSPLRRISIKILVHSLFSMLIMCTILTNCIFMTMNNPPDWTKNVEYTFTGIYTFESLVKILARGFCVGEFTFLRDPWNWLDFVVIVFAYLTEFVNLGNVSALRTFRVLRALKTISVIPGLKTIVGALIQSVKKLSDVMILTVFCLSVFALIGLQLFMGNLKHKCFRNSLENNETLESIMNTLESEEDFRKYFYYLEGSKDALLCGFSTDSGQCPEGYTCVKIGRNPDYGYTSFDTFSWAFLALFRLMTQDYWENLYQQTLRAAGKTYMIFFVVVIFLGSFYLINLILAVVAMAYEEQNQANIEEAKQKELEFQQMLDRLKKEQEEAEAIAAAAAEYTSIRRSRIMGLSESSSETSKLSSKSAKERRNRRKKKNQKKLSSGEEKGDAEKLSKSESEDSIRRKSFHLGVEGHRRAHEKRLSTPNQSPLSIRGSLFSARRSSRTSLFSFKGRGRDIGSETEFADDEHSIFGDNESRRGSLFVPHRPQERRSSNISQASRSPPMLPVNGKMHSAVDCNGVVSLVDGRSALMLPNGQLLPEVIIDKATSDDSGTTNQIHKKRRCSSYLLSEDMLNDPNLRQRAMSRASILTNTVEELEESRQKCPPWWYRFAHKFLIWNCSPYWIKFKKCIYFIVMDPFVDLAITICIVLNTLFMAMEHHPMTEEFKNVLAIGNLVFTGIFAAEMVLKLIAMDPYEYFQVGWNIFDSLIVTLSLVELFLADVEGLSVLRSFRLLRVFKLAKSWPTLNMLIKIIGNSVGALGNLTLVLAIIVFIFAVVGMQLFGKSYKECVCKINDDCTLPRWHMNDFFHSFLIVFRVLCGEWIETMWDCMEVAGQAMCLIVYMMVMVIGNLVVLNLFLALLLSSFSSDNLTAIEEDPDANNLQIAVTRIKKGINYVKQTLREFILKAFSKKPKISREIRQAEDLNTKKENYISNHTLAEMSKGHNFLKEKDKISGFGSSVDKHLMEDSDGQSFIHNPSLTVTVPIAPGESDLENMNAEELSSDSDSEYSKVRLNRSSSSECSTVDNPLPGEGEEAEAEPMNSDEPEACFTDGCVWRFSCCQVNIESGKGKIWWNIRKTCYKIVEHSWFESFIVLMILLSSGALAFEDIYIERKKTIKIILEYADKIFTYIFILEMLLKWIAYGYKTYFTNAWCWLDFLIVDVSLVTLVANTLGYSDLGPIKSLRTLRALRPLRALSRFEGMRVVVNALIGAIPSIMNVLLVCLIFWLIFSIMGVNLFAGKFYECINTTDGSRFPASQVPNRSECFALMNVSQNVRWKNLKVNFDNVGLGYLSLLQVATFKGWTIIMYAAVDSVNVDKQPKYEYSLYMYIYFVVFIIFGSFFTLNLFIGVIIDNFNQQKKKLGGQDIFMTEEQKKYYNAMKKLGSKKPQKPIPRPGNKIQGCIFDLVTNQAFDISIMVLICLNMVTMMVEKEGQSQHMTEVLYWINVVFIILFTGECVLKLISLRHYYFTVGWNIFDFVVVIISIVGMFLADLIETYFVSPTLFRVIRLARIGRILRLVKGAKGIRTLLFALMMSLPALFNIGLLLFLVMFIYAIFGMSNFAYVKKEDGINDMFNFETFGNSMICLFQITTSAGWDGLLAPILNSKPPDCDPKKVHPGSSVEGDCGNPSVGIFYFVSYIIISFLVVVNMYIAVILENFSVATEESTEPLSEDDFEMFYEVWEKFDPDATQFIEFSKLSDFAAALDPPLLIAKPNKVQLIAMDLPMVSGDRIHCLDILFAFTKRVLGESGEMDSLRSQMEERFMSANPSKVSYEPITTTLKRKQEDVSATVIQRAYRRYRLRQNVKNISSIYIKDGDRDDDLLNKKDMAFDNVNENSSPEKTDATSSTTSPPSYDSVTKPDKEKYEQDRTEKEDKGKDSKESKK
T3 sequence (O14649 whole entry, species assumed): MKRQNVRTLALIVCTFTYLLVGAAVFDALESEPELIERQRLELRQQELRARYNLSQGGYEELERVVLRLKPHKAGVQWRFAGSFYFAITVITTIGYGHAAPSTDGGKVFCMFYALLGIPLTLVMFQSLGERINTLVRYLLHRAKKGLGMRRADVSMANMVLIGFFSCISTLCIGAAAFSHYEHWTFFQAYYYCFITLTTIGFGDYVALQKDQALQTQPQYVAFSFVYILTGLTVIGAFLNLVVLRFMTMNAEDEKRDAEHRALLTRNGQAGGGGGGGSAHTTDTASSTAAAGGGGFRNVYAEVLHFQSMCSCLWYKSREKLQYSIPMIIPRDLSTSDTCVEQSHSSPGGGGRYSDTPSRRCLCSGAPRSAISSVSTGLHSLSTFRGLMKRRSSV

`CN(Cc1cccc(F)c1)c1nc2c(c(=O)n(Cc3ccccc3)c(=O)n2C)n1C` [Analog 48] was tested, and the inhibition at 10 µM (KV2.1) was 51 ± 1.2%, the inhibition at 120 s, 10 µM (hERG) was -2.8 ± 2.4% and the inhibition at 10 µM (TASK-1) was 24 ± 2.3%. The inhibition at 10 µM (KV7.2) was 15 ± 2.3%, the inhibition at 10 µM (Maxi-K α1/β4) was 42 ± 4.6% and the inhibition at 10 µM (CaV3.2) was 17 ± 4.2%. For the same compound, the inhibition at 10 µM (Maxi-K α1/β3) was 63 ± 1.2% and the inhibition at 10 µM (NaV1.7) was 39 ± 3.1%.

With `COc1cccc(Cn2c(=O)c3c(nc(N(C)Cc4ccccc4)n3C)n(C)c2=O)c1` [Analog 32] the inhibition at 10 µM (KV2.1) was 51 ± 1.5%, the inhibition at 120 s, 10 µM (hERG) was 4.6 ± 4.5% and the inhibition at 10 µM (TASK-1) was 17 ± 2.3%. It also gave an inhibition at 10 µM (KV7.2) of 16 ± 2.2%, an inhibition at 10 µM (Maxi-K α1/β4) of 48 ± 2% and an inhibition at 10 µM (CaV3.2) of 18 ± 1.6%. The inhibition at 10 µM (Maxi-K α1/β3) was 79 ± 1.4% and the inhibition at 10 µM (NaV1.7) was 41 ± 3.3%.

Work on `CCCCN(Cc1ccccc1)c1nc2c(c(=O)n(Cc3ccccc3)c(=O)n2C)n1C` [Analog 70] yielded an inhibition at 10 µM (KV2.1) of 35 ± 1.3%, an inhibition at 120 s, 10 µM (hERG) of 22 ± 2% and an inhibition at 10 µM (TASK-1) of 23 ± 2.9%. For the same compound, the inhibition at 10 µM (KV7.2) was 19 ± 0.2%, the inhibition at 10 µM (Maxi-K α1/β4) was 8.5 ± 2.1% and the inhibition at 10 µM (CaV3.2) was 16 ± 2.2%. It also gave an inhibition at 10 µM (Maxi-K α1/β3) of 34 ± 2.9% and an inhibition at 10 µM (NaV1.7) of 33 ± 1.4%.

In the case of `Cn1c(N(Cc2ccccc2)CC2CC2)nc2c1c(=O)n(Cc1ccccc1)c(=O)n2C` [Analog 71], the inhibition at 10 µM (KV2.1) is reported as 33 ± 1.2%, the inhibition at 120 s, 10 µM (hERG) is reported as 23 ± 4% and the inhibition at 10 µM (TASK-1) is reported as 4.9 ± 1.5%. For the same compound, the inhibition at 10 µM (KV7.2) was 14 ± 1.6%, the inhibition at 10 µM (Maxi-K α1/β4) was 12 ± 3.9% and the inhibition at 10 µM (CaV3.2) was 24 ± 3.6%. For the same compound, the inhibition at 10 µM (Maxi-K α1/β3) was 17 ± 5.2% and the inhibition at 10 µM (NaV1.7) was 29 ± 3%.
